Measured values reported in paper PMC9365994, “Small molecules to regulate the GH/IGF1 axis by inhibiting the growth hormone receptor synthesis” (Frontiers in Endocrinology, 2022).
“Also recorded” adds a separate entry of the source.

Experiments:
fos-GHRct = biological target: T1, fos-GHRct (Oryctolagus cuniculus, UniProt P19941); assay: In vitro translation of fos-GHRct in HeLa cell cell-free system; format: biochemical; settings: Figure 7B
T1 sequence (P19941 288-638): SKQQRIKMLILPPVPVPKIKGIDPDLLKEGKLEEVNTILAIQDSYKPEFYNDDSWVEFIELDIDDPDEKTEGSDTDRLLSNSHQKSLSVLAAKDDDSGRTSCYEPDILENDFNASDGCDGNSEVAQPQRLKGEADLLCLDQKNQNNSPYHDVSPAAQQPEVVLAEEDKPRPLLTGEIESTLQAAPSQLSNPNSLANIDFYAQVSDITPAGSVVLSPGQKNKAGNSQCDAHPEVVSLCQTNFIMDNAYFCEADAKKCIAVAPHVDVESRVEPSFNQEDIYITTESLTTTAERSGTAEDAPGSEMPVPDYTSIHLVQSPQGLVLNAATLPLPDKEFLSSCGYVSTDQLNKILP
From the text: pcDNA3 vector DNA expressing Fos-zippered GHR cytosolic tails as described in ([32]) was used in a cell-free translation system, based on HeLa cell extract (Promega). Empty vector (pcDNA) was used as control. The blots were detected with an anti-GHR antibody raised in rabbits against GHR cytosolic tails.
To decide between these possibilities, we performed in vitro translation experiments.
This experiment represents the results of 6 independent repeats. […] In the right panel the 4 proline residues in box-1 were replaced by alanine residues. Empty vector (pcDNA) was used as control. The blots were detected with anti-GHR(B).

[1] = Glucose and insulin levels in a dog experiment; format: in vivo; settings: data not shown
[2] = Liver weight, body weight and side effects in xenografted mice; format: in vivo
Procedure: (§1) BM001, BM002, and BM003 were used in mice xenografted with MM231 breast cancer cells that are GH-responsive both for growth and drug resistance ([42]–[45]). The cells were orthotopically grafted into the inguinal mammary gland, and drug treatments started when tumors reached a volume of >50 mm^3. We used a treatment regimen of 3 injections per week (1 and 5 mg/kg) during 3 weeks (9 mice/group) ( Figure 6 ). Animals were killed when tumor volume exceeded 150 mm^3 or mice presented lung metastasis upon bioluminescence imaging measurements. […] Drug withdrawal effects were not studied until now. […] We observed no adverse side effects neither on appetite and behavior ([46]). […] We next assessed if the identified drugs indeed target the GH/IGF1 pathway and consequently, if they result in a decrease in liver weight and IGF1 levels, as observed in GHR knockout mice and Laron patients ([47]).

IGF1 = assay: Serum IGF1 levels in xenografted mice; format: in vivo
Procedure: as §1

[3] = tested on: GH-induced GHR-Jak2-Stat5 signaling in IM9 lymphoblasts; assay: Flow cytometric (FACS) pSTAT5 test, GH-induced, IM9 cells in whole blood; settings: for GH-induced Stat5 phosphorylation (in words): Fig. S8A, Conc of drugs: 1 mM, incubation time 30 min; for inhibition in the FACS assay: drugs 50 µM for 15 MIN
Procedure: First round: The PerFix EXPOSE (Beckman Coulter), was used to fix and permeabilize cells according to the optimized procedure described in Malergue et al., 2015 ([36]). Samples were analyzed in FC500 MPL. Data were analyzed with Kaluza software (Beckman Coulter). Second round: the PerFix EXPOSE was used according to the IFU and samples were analyzed in a Navios Cytometer. The first screening used pure IM-9 cells, whereas in the second round they were spiked in 100 µL whole blood (EDTA tubes). 15 min after the inhibitory compounds, the activators were added for 20-30 min.
In short: A mixture of blood and
IM9 human lymphoblast was incubated with the drugs (50 µM) for 15 MIN; GH and GM-CSF
were added 7 min before the cells were fixed with formaldehyde. Blood cells are sensitive to
GM-CSF, and not to GH; IM9 cells are sensitive to GH. A mixture of three antibodies in three
colors; CD14-FITC, CD34-PE and p-Stat5-Alexa 647 was used to analyze the p-Stat5 levels
of monocytes and IM9 cells.
Fig. S8A. FACS plots of compounds that inhibit GH-induced GHR-Jak2-Stat5 signaling in IM9 lymphoblasts.
The end point of the signaling cascade is measured by assessing the phosphorylation status of STAT5.
Stat5. Conc of drugs: 1 mM; incubation time 30 min
Fig. S8B. FACS plots of compounds that inhibit GM-CSF-Jak2-Stat5 signaling in blood monocytes. The end
point of the signaling cascade is measured by assessing the phosphorylation status of STAT5.

[4] = tested on: Colo-205 human colon cancer line; assay: Cell proliferation assay (CyQuant), Colo-205; format: cell-based
From the text: (§2) Based on these 2 compounds, Specs selected a new set of 109 structural analogues ( Supplementary Data 3 ). Twenty-one compounds tested positive in the primary screen protocol. […] ( Figures S12, S13 ). The 14 active drugs are depicted in Figure 4 . In the final test, the 5 best compounds (BM001-BM005) were screened for their […] effect on cancer cells. We used the triple-negative human breast cancer line, MDA-MM-231 (MM231) and the human colon cancer line Colo-205, and quantified DNA in vital cells ( Figure 5B ). Dose-response curves were made after 24, 48 & 72 h. The 5 drugs inhibited both cell lines relatively equal to the dose-response curves monitoring pGHR tails, pJak2, and pSTAT5 ( Figure S13 and Figure S14 ) with IC50 values varying from 30-200 nM ( Figure 5 ). […]
(§3) fos-GHRct phosphorylation (Fig. S12), a remarkable hit rate of […]. Next, we determined the dose-response effect (IC50) of these 21 new compounds on pY-levels of fos-GHRct. The compounds were divided in four categories: no dose-response effect (6), effect less than […]
(§4) plateaued at 200 units of relative fluorescence intensity. […]
(§5) protocol. […]
(§6) Next, we assessed the effect of the best 5 lead compounds (BM001-BM005) for the inhibition of cell proliferation/induction or cell death. […] With a standard green filter set the fluorescence from the nuclei is quantified in a multi-well plate spectrophotometer. […]

[5] = tested on: MDA-MM-231 (MM231) triple-negative human breast cancer line; assay: Cell proliferation assay (CyQuant), MDA-MM-231; format: cell-based
From the text: as §2, §3, §4, §5, §6

For `Cc1nc(N)nc(N)c1/C=C/C1(c2ccc(C(F)(F)F)cc2)CC1` [BM001], the “concentration inhibiting the synthesis of fos-GHRct” value (fos-GHRct) was 0.1 to 1 µM, the glucose levels [1] was “did neither affect” and the insulin levels [1] was “did neither affect”. For the same molecule, the “Liver weight” value ([2]; 1 mg/kg) was 1041 mg, the “Liver weight” value ([2]; 5 mg/kg) was 1038 mg and the “reduction of liver weight” value ([2]; 3 injections per week, 3 weeks) was 16%. For the same molecule, the total body weights ([2]; 3 weeks treatment) was “remained the same”, the “liver weight (in words)” value ([2]; Figure 6E) was “dose-dependent reduction” and the “reduction of serum IGF1 levels” value (IGF1; 3 injections per week, 3 weeks) was 73%. The “plasma IGF1 levels (in words)” value (IGF1; Figure 6D) was “dose-dependent reduction” and the “reduction of IGF1 (fold)” value (IGF1; measured at the end of the experiment) was “four-fold”.

With `Cc1nc(N)nc(N)c1C#CC1(c2ccc(Cl)cc2)CC1` [BM004] the “time to decrease of STAT5 phosphorylation” value [3] was ≤ 30 min, the “GH-induced Stat5 phosphorylation (in words)” value [3] was “decreased; also recorded: inhibit” and the “inhibition in the FACS assay” value [3] was > 30%.

For `CCOc1cccc2nc(N)nc(N)c12` [BM012], the “time to decrease of STAT5 phosphorylation” value [3] was ≤ 30 min, the “GH-induced Stat5 phosphorylation (in words)” value [3] was “decreased; also recorded: inhibit” and the “inhibition in the FACS assay” value [3] was > 30%.

With `N#CC[C@H](C1CCCC1)n1cc(-c2ncnc3[nH]ccc23)cn1` [Ruxolitinib, reference compound] the “effect on cell proliferation (in words)” value [4] was “no effect” and the “effect on cell proliferation (in words)” value [5] was “no effect”.
